Patent publication US20130158075A1, “HETEROCYCLIC COMPOUNDS AS DGAT1 INHIBITORS” (PIRAMAL ENTERPRISES LIMITED, priority 2010, published 2013)
Counter-ions that a name gives are not always drawn.

Target: T1, hDGAT1 (Homo sapiens, UniProt O75907)
T1 construct: made in house; host or cells: Sf9 insect cells (baculovirus); microsomal fraction
T1 sequence (O75907 1-488): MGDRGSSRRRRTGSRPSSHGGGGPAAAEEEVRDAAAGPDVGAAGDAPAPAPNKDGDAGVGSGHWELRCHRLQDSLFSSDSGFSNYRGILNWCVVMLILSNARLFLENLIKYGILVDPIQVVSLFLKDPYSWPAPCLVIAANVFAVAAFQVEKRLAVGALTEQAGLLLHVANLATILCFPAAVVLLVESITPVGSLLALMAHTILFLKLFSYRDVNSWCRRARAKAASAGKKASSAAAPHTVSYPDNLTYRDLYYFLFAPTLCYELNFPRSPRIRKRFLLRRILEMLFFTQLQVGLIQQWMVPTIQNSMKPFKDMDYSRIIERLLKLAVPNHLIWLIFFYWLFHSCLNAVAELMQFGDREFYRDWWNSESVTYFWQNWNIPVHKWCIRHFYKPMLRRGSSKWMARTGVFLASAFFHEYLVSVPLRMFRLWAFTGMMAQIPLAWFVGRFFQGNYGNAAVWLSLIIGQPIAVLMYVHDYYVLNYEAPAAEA
Assay: In-vitro DGAT1 assay with hDGAT1 microsomes from Sf9 cells (14C oleoyl CoA, scintillation counting)
Type: biochemical
Details: for inhibition at 1 µM: read-out: Percentage inhibition of hDGAT1
How it was run: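 Microsomes from Sf9 cells infected with hDGAT1 baculovirus (MOI 5, harvested ~66-72 h) were incubated with [14C]oleoyl-CoA and 1,2-dioleoyl-sn-glycerol at 37 °C for 10 min, in duplicate. After alkaline ethanol stop, triglycerides were heptane-extracted and counted by liquid scintillation; percent inhibition was plotted against compound concentration (nM).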

Row | SMILES | inhibition at 1 µM [%] | Percentage inhibition of hDGAT1 (at 1 μM)
1 | O=C(O)CN1CCC(c2ncc(-c3ccc(NC(=O)Nc4ccccc4F)cc3)s2)CC1 [Example 431, 2-(4-(5-(4-(3-(2-Fluorophenyl)ureido)phenyl)thiazol-2-yl)piperidin-1-yl)acetic acid] | > 50 | –
2 | O=C(O)CN1CCC(c2ncc(-c3ccc(NC(=O)Nc4ccc(F)cc4F)cc3)s2)CC1 [Example 433, 2-(4-(5-(4-(3-(2,4-Difluorophenyl)ureido)phenyl)thiazol-2-yl)piperidin-1-yl)acetic acid] | > 50 | –
3 | O=C(O)CN1CCC(c2ncc(-c3ccc(NC(=O)Nc4cc(F)c(F)cc4F)cc3)s2)CC1 [Example 435, 2-(4-(5-(4-(3-(2,4,5-Trifluorophenyl)ureido)phenyl)thiazol-2-yl)piperidin-1-yl)acetic acid] | > 50 | –
4 | O=C(O)CN1CCC(c2ncc(-c3ccc(NC(=O)Nc4ccccc4C(F)(F)F)cc3)s2)CC1 [Example 437, 2-(4-(5-(4-(3-(2-(Trifluoromethyl)phenyl)ureido)phenyl)thiazol-2-yl)piperidin-1-yl)acetic acid] | > 50 | –
5 | O=C(O)CN1CCC(c2ncc(-c3ccc(NC(=O)Nc4ccc(F)c(F)c4F)cc3)s2)CC1 [Example 439, 2-(4-(5-(4-(3-(2,3,4-Trifluorophenyl)ureido)phenyl)thiazol-2-yl)piperidin-1-yl)acetic acid] | 20 to 50 | –
6 | CC(C(=O)O)N1CCC(c2ncc(-c3ccc(NC(=O)Nc4cc(F)c(F)cc4F)cc3)s2)CC1 (stereo not drawn) [Example 451, 2-(4-(5-(4-(3-(2,4,5-Trifluorophenyl)ureido)phenyl)thiazol-2-yl)piperidin-1-yl)propanoic acid] | > 50 | –
7 | CC(C(=O)O)N1CCC(c2ncc(-c3ccc(NC(=O)Nc4ccccc4F)cc3)s2)CC1 (stereo not drawn) [Example 453, 2-(4-(5-(4-(3-(2-Fluorophenyl)ureido)phenyl)thiazol-2-yl)piperidin-1-yl) propanoic acid] | > 50 | –
8 | CC(C(=O)O)N1CCC(c2ncc(-c3ccc(NC(=O)Nc4ccccc4Cl)cc3)s2)CC1 (stereo not drawn) [Example 455, 2-(4-(5-(4-(3-(2-Chlorophenyl)ureido)phenyl)thiazol-2-yl)piperidin-1-yl)propanoic acid] | > 50 | –
9 | CC(C(=O)O)N1CCC(c2ncc(-c3ccc(NC(=O)Nc4c(F)cc(F)cc4F)cc3)s2)CC1 (stereo not drawn) [Example 459, 2-(4-(5-(4-(3-(2,4,6-Trifluorophenyl)ureido)phenyl)thiazol-2-yl)piperidin-1-yl)propanoic acid] | > 50 | –
10 | O=C(Nc1ccc(-c2cnc(C3CCNCC3)s2)cc1)Nc1ccccc1Cl [Example 474, 1-(2-Chlorophenyl)-3-(4-(2-(piperidin-4-yl)thiazol-5-yl)phenyl)urea hydrochloride] | 20 to 50 | –
11 | CC(C)(C)OC(=O)N1CCC(c2ncc(-c3ccc(NC(=O)Nc4ccccc4F)cc3)s2)CC1 [Example 475, t-Butyl 4-(5-(4-(3-(2-fluorophenyl)ureido)phenyl)thiazol-2-yl)piperidine-1-carboxylate] | 20 to 50 | –
12 | O=C(Nc1ccc(-c2cnc(C3CCNCC3)s2)cc1)Nc1ccccc1F [Example 476, 1-(2-Fluorophenyl)-3-(4-(2-(piperidin-4-yl)thiazol-5-yl)phenyl)urea hydrochloride] | 20 to 50 | –
13 | CC(C)(C)OC(=O)N1CCC(c2ncc(-c3ccc(NC(=O)Nc4ccc(F)cc4F)cc3)s2)CC1 [Example 477, t-Butyl 4-(5-(4-(3-(2,4-difluorophenyl)ureido)phenyl)thiazol-2-yl)piperidine-1-carboxylate] | 20 to 50 | –
14 | O=C(Nc1ccc(-c2cnc(C3CCNCC3)s2)cc1)Nc1ccc(F)cc1F [Example 478, 1-(2,4-Difluorophenyl)-3-(4-(2-(piperidin-4-yl)thiazol-5-yl)phenyl)urea hydrochloride] | 20 to 50 | –
15 | CC(C)(C)OC(=O)N1CCC(c2ncc(-c3ccc(NC(=O)Nc4c(F)cc(F)cc4F)cc3)s2)CC1 [Example 479, t-Butyl 4-(5-(4-(3-(2,4,6-trifluorophenyl)ureido)phenyl)thiazol-2-yl)piperidine-1-carboxylate] | 20 to 50 | –
16 | O=C(Nc1ccc(-c2cnc(C3CCNCC3)s2)cc1)Nc1cc(F)c(F)cc1F [Example 480, 1-(4-(2-(Piperidin-4-yl)thiazol-5-yl)phenyl)-3-(2,4,5-trifluorophenyl)urea hydrochloride] | 20 to 50 | –
17 | O=C(Nc1ccc(-c2cnc(C3CCN(S(=O)(=O)C(F)(F)F)CC3)s2)cc1)Nc1ccccc1F [Example 483, 1-(2-Fluorophenyl)-3-(4-(2-(1-((trifluoromethyl)sulfonyl)piperidin-4-yl)thiazol-5-yl)phenyl)urea] | 20 to 50 | –

Row | SMILES | inhibition at 1 µM [%] | Percentage inhibition of hDGAT1 (at 1 μM)
18 | O=C(Nc1ccc(-c2cnc(C3CCN(S(=O)(=O)C(F)(F)F)CC3)s2)cc1)Nc1ccccc1Cl [Example 484, 1-(2-Chlorophenyl)-3-(4-(2-(1-((trifluoromethyl)sulfonyl)piperidin-4-yl)thiazol-5-yl)phenyl)urea] | 20 to 50 | –
19 | O=C(Nc1ccc(-c2cnc(C3CCN(S(=O)(=O)C(F)(F)F)CC3)s2)cc1)Nc1ccc(F)cc1F [Example 485, 1-(2,4-Difluorophenyl)-3-(4-(2-(1-((trifluoromethyl)sulfonyl)piperidin-4-yl)thiazol-5-yl)phenyl)urea] | 20 to 50 | –
20 | O=C(Nc1ccc(-c2cnc(C3CCN(S(=O)(=O)C(F)(F)F)CC3)s2)cc1)Nc1c(F)cc(F)cc1F [Example 486, 1-(4-(2-(1-((Trifluoromethyl)sulfonyl)piperidin-4-yl)thiazol-5-yl)phenyl)-3-(2,4,6-trifluorophenyl)urea] | 20 to 50 | –
21 | O=C(Nc1ccc(-c2cnc(C3CCN(S(=O)(=O)C(F)(F)F)CC3)s2)cc1)Nc1cc(F)c(F)cc1F [Example 487, 1-(4-(2-(1-((Trifluoromethyl)sulfonyl)piperidin-4-yl)thiazol-5-yl)phenyl)-3-(2,4,5-trifluorophenyl)urea] | 20 to 50 | –
22 | CS(=O)(=O)N1CCC(c2ncc(-c3ccc(NC(=O)Nc4ccccc4Cl)cc3)s2)CC1 [Example 490, 1-(2-Chlorophenyl)-3-(4-(2-(1-(methylsulfonyl)piperidin-4-yl)thiazol-5-yl)phenyl)urea] | 20 to 50 | –
23 | CS(=O)(=O)N1CCC(c2ncc(-c3ccc(NC(=O)Nc4ccccc4F)cc3)s2)CC1 [Example 491, 1-(2-Fluorophenyl)-3-(4-(2-(1-(methylsulfonyl)piperidin-4-yl)thiazol-5-yl)phenyl)urea] | 20 to 50 | –
24 | CS(=O)(=O)N1CCC(c2ncc(-c3ccc(NC(=O)Nc4c(F)cc(F)cc4F)cc3)s2)CC1 [Example 493, 1-(4-(2-(1-(Methylsulfonyl)piperidin-4-yl)thiazol-5-yl)phenyl)-3-(2,4,6-trifluorophenyl)urea] | 20 to 50 | –
25 | CS(=O)(=O)N1CCC(c2ncc(-c3ccc(NC(=O)Nc4cc(F)c(F)cc4F)cc3)s2)CC1 [Example 494, 1-(4-(2-(1-(Methylsulfonyl)piperidin-4-yl)thiazol-5-yl)phenyl)-3-(2,4,5-trifluorophenyl)urea] | > 50 | –
26 | O=C(Nc1ccc(-c2cnc(C34CC5CC(CC(C(=O)O)(C5)C3)C4)s2)cc1)Nc1ccccc1F [Example 502, 3-(5-(4-(3-(2-Fluorophenyl)ureido)phenyl)thiazol-2-yl)adamantane-1-carboxylic acid] | > 50 | –
27 | O=C(Nc1ccc(-c2cnc(C34CC5CC(CC(C(=O)O)(C5)C3)C4)s2)cc1)Nc1c(F)cccc1F [Example 506, 3-(5-(4-(3-(2,6-Difluorophenyl)ureido)phenyl)thiazol-2-yl)adamantane-1-carboxylic acid] | > 50 | –
28 | O=C(Nc1ccc(-c2cnc(C34CC5CC(CC(C(=O)O)(C5)C3)C4)s2)cc1)Nc1cc(F)c(F)cc1F [Example 508, 3-(5-(4-(3-(2,4,5-Trifluorophenyl)ureido)phenyl)thiazol-2-yl)adamantane-1-carboxylic acid] | > 50 | –
29 | O=C(Nc1ccc(-c2cnc(C34CC5CC(CC(C(=O)O)(C5)C3)C4)s2)cc1)Nc1ccc(F)c(F)c1F [Example 510, 3-(5-(4-(3-(2,3,4-Trifluorophenyl)ureido)phenyl)thiazol-2-yl)adamantane-1-carboxylic acid] | > 50 | –
30 | O=C(Nc1ccc(-c2cnc(C34CC5CC(CC(C(=O)O)(C5)C3)C4)s2)cc1)Nc1cc(F)cc(F)c1 [Example 512, 3-(5-(4-(3-(3,5-Difluorophenyl)ureido)phenyl)thiazol-2-yl)adamantane-1-carboxylic acid] | > 50 | –
31 | O=C(Nc1ccc(-c2cnc(C34CC5CC(CC(C(=O)O)(C5)C3)C4)s2)cc1)Nc1cccc(C(F)(F)F)c1 [Example 514, 3-(5-(4-(3-(3-(Trifluoromethyl)phenyl)ureido)phenyl)thiazol-2-yl)adamantane-1-carboxylic acid] | > 50 | –
32 | O=C(Nc1ccc(-c2cnc(CCNS(=O)(=O)C(F)(F)F)s2)cc1)Nc1ccc(C(F)(F)F)cc1 [Example 526] | – | ++ (>50 % Inhibition)
33 | O=C(Nc1ccccc1)Nc1ccc(-c2cnc(CCNS(=O)(=O)C(F)(F)F)s2)cc1 [Example 527, 1,1,1-Trifluoro-N-(2-(5-(4-(3-phenylureido)phenyl)thiazol-2-yl)ethyl)methane sulfonamide] | > 50 | –
